Measured values as given in US20240000119A1, “MEGASTIGMANE DERIVATIVE COMPOSITIONS AND METHODS FOR TASTE MODULATION” (INTERNATIONAL FLAVORS & FRAGRANCES, priority 2020, published 2024).

Assays:
[1] = Flavor profiles of megastigmane derivative solutions in water compared with sucrose solution
Excerpt: The flavor profiles of various megastigmane derivative solutions in water including lauroside A (0.5 ppm), ampelopsisionoside (0.5 ppm), bridelionoside F (0.5 ppm), actinidioionoside (0.5 ppm) and roseoside solutions (0.5 ppm) were each compared with that of sucrose solution (1.5%).

[2] = Enhancement of sucrose sweetness: flavor profile of sucrose base solution with added megastigmane derivative; conditions: 0.5 ppm in sucrose base solution (4%)
Experimental: (§1) A sucrose base solution (4%) (“base”) was prepared in water.
Solutions of lauroside A, ampelopsisionoside, bridelionoside F and actinidioionoside were prepared in water (0.01%).
The solutions of lauroside A, ampelopsisionoside, bridelionoside F and actinidioionoside (0.01%) were added to the base, respectively, to a final concentration of 0.5 ppm. The flavor profiles of the sucrose base solution with added megastigmane derivatives are reported in the following: […]

[3] = Sweetness enhancement at different concentrations: flavor profile of sucrose base solution with added roseoside
Experimental: as §1
Roseoside was added to the base to provide a series of solutions with concentrations ranging from 1 ppb to 5 ppm. The flavor profile of the sucrose solution with added roseoside is reported in the following: […]

[4] = Enhancement of mouthfeel by roseoside in water
[5] = 0.5 ppm in water, compared with sucrose solution (1.5%)

SMILES | sweet taste (flavor profile) [1, 5] | Flavor Profile [2] | further results
CC(/C=C/C1(O)C(C)(C)CC(O)CC1(C)O)OC1OC(CO)C(O)C(O)C1O (stereo not shown) [Actinidioionoside, actinidioionoside] | none of the megastigmane derivation solutions exhibited a sweet taste | Enhanced sweetness and mouthfeel | 
CC(/C=C/C1(O)C(C)CC(=O)CC1(C)C)OC1OC(CO)C(O)C(O)C1O (stereo not shown) [Lauroside A, lauroside A] | none of the megastigmane derivation solutions exhibited a sweet taste | Enhanced sweetness and mouthfeel, mouth coating, | 
CC1=C(/C=C/C(C)OC2OC(CO)C(O)C(O)C2O)C(C)(C)CC(O)C1O (stereo not shown) [Bridelionoside F, bridelionoside F] | none of the megastigmane derivation solutions exhibited a sweet taste | Enhanced sweetness and mouthfeel with para | 
CC1=CC(=O)CC(C)(C)C1(O)/C=C/C(C)OC1OC(CO)C(O)C(O)C1O (stereo not shown) [Roseoside, roseoside] | none of the megastigmane derivation solutions exhibited a sweet taste |  | Flavor Profile ([3]; 1 ppb in sucrose base solution (4%)): Slightly enhanced sweetness and viscous mouthfeel; Flavor Profile ([3]; 1 ppm in sucrose base solution (4%)): Slightly enhanced and lingering sweetness, viscous; Flavor Profile ([3]; 5 ppm in sucrose base solution (4%)): More enhanced and lingering sweetness, slight; Flavor Profile ([3]; 10 ppb in sucrose base solution (4%)): Slightly enhanced and lingering sweetness, viscous; Flavor Profile ([3]; 100 ppb in sucrose base solution (4%)): Slightly enhanced and lingering sweetness, viscous; Flavor Profile ([4]; 0.5 ppm in water): Slight astringency, not sweet; Flavor Profile ([4]; 2 ppm in water): Slight astringency, very slight bitterness, slightly
OC[C@H]1O[C@@](CO)(O[C@H]2O[C@H](CO)[C@@H](O)[C@H](O)[C@H]2O)[C@@H](O)[C@@H]1O [sucrose, reference compound] |  |  | sweet taste (flavor profile) ([1]; sucrose solution (1.5%)): tasted slightly sweet
CC(/C=C/C1(O)C(C)CC(=O)CC1(C)C)OC1OC(CO)C(O)C(O)C1O (stereo not shown) [Ampelopsisionoside, ampelopsisionoside] | none of the megastigmane derivation solutions exhibited a sweet taste |  | 
